For 14 compounds, IC50 results are on record in patent US20240174643A1, “SOS1 PROTEIN DEGRADERS, PHARMACEUTICAL COMPOSITIONS THEREOF, AND THEIR THERAPEUTIC APPLICATIONS” (Bio TheryX, Inc., priority 2021, published 2024).

Common to all, as to type: cell-based
The test system of one assay is Lovo (G13D) cells. The assay can be described thus: Cell viability assay (CELLTITER-GLO), Lovo cells. Conditions: Homo sapiens, 72 h, 3 days at 37° C., CELLTITER-GLO luminescence, read-out: Inhibition of Cancerous Cells IC50 (μM) Lovo (G13D). As for the experimental part:
(§1) AsPC-1, 1358, and SW48 cells were cultured in RPMI 1640 media supplemented with 10% fetal bovine serum, streptomycin, and penicillin. Lovo and SW480 cells were cultured in DMEM media supplemented with 10% fetal bovine serum, streptomycin, and penicillin. The cell lines were plated in their respective medium supplemented with 2.5% fetal bovine serum, streptomycin, and penicillin. All cell lines were plated in white walled 96-well plates at 2,000 cells/well or 384-well plates at 500 cells/well, except Lovo, which were plated at 4,000 or 1,000 cells/well, respectively. The cells were incubated in DMSO (control) or a compound for 3 days at 37° C. under 5% CO2. A CELLTITER-GLO® reagent (100 μL) was then added to each well. After a 10 min incubation with shaking, luminescence was measured using an ENVISION® multimode plate reader.
Background: Cellular ATP, detected with luciferase, serves as a proxy for viable cell number.

Another assay deals with SW480 (G12V) cells. The assay can be described thus: Cell viability assay (CELLTITER-GLO), SW480 cells. Conditions: Homo sapiens, 72 h, 3 days at 37° C., CELLTITER-GLO luminescence, read-out: Inhibition of Cancerous Cells IC50 (μM) SW480 (G12V). How it is done:
as §1

The subject of another assay is SW48 (wt) cells. The assay can be described thus: Cell viability assay (CELLTITER-GLO), SW48 cells. To be noted: Homo sapiens, 72 h, 3 days at 37° C., CELLTITER-GLO luminescence, read-out: Inhibition of Cancerous Cells IC50 (μM) SW48 (wt). How it is done:
as §1

Another assay deals with H358 (G12C) cells. Description: Cell viability assay (CELLTITER-GLO), H358 cells. To be noted: Homo sapiens, NCI-H358, 72 h, 3 days at 37° C., CELLTITER-GLO luminescence, read-out: Inhibition of Cancerous Cells IC50 (μM) H358 (G12C). How it is done: as §1
Another assay deals with AsPC-1 (G12D) cells. The assay can be described thus: Cell viability assay (CELLTITER-GLO), AsPC-1 cells. Conditions: Homo sapiens, ASPC1, 72 h, 3 days at 37° C., CELLTITER-GLO luminescence, read-out: Inhibition of Cancerous Cells IC50 (μM) AsPC-1 (G12D). As for the experimental part: as §1

The structures appear in SMILES notation.

For `COc1cc2c(N[C@H](C)c3cccc(Br)c3)nc(C)nc2cc1OCCCCCCCN1CCN(C(=O)CNc2cccc3c(C4CCC(=O)NC4=O)nn(C)c23)CC1` (stereo partly drawn) [Compound D4, 3-(7-((2-(4-(7-((4-(((R)-1-(3-Bromophenyl)ethyl)amino)-6-methoxy-2-methyl-quinazolin-7-yl)oxy)heptyl)piperazin-1-yl)-2-oxoethyl)amino)-1-methyl-1H-indazol-3-yl)-piperidine-2,6-dione], the IC50 – broadly, the point on the concentration scale where inhibition reaches its midpoint – in the assay on Lovo (G13D) cells stood at 0.37 µM; in the assay on SW480 (G12V) cells, 0.65 µM; in the assay with SW48 (wt) cells, 0.85 µM; in the assay with H358 (G12C) cells, 1.6 µM.

For `COc1cc2c(N[C@H](C)c3cccc(Br)c3)nc(C)nc2cc1OCCCCCCCN1CCN(C(=O)COc2ccc(N3CCC(=O)NC3=O)cc2)CC1` [Compound C1, (R)-1-(4-(2-(4-(7-((4-((1-(3-Bromophenyl)ethyl)amino)-6-methoxy-2-methyl-quinazolin-7-yl)oxy)heptyl)piperazin-1-yl)-2-oxoethoxy)phenyl)dihydropyrimidine-2,4(1H,3H)-dione], the IC50 is 0.69 µM in the assay on Lovo (G13D) cells; 1.7 µM in the assay on SW480 (G12V) cells; 2.2 µM in the assay on SW48 (wt) cells; 1.9 µM in the assay with H358 (G12C) cells; 2.3 µM with AsPC-1 (G12D) cells.

Consider `COc1cc2c(N[C@H](C)c3cccc(Br)c3)nc(C)nc2cc1OCCCCCCCCCN1CCN(C(=O)CNc2cccc3c(C4CCC(=O)NC4=O)nn(C)c23)CC1` (stereo partly drawn) [Compound D5, 3-(7-((2-(4-(9-((4-(((R)-1-(3-Bromophenyl)ethyl)amino)-6-methoxy-2-methyl-quinazolin-7-yl)oxy)nonyl)piperazin-1-yl)-2-oxoethyl)amino)-1-methyl-1H-indazol-3-yl)-piperidine-2,6-dione], for which the IC50 in the assay on Lovo (G13D) cells is 0.42 µM; with SW480 (G12V) cells, 0.94 µM; with SW48 (wt) cells it was 1.5 µM; in the assay with H358 (G12C) cells, more than 10 µM.

Consider `COc1cc2c(N[C@H](C)c3cccc(Br)c3)nc(C)nc2cc1OCCCCCCCCCCCN1CCN(C(=O)CNc2ccc(C3CCC(=O)NC3=O)cc2)CC1` (stereo partly drawn) [Compound B6, 3-(4-((2-(4-(11-((4-(((R)-1-(3-bromophenyl)ethyl)amino)-6-methoxy-2-methyl-quinazolin-7-yl)oxy)undecyl)piperazin-1-yl)-2-oxoethyl)amino)phenyl)piperidine-2,6-dione], for which the IC50 in the assay with Lovo (G13D) cells worked out at 0.48 µM; in the assay on SW480 (G12V) cells, 0.3 µM; in the assay on SW48 (wt) cells, 3.7 µM; in the assay on H358 (G12C) cells, 2.1 µM.

As for `COc1cc2c(N[C@H](C)c3cccc(Br)c3)nc(C)nc2cc1OCCCCCCCCCN1CCN(C(=O)CNc2ccc3c(N4CCC(=O)NC4=O)nn(C)c3c2)CC1` [Compound D8, (R)-1-(6-((2-(4-(9-((4-((1-(3-Bromophenyl)ethyl)amino)-6-methoxy-2-methyl-quinazolin-7-yl)oxy)nonyl)piperazin-1-yl)-2-oxoethyl)amino)-1-methyl-1H-indazol-3-yl)-dihydropyrimidine-2,4(1H,3H)-dione], the half-inhibitory concentration (IC50) amounted to 1.2 µM with Lovo (G13D) cells; 0.35 µM in the assay on SW480 (G12V) cells; 0.4 µM with SW48 (wt) cells; 6.1 µM with H358 (G12C) cells; 1.7 µM in the assay with AsPC-1 (G12D) cells.

As for `COc1cc2c(N[C@H](C)c3cccc(Br)c3)nc(C)nc2cc1OCCCCCCCN1CCN(C(=O)CNc2ccc3c(C4CCC(=O)NC4=O)nn(C)c3c2)CC1` (stereo partly drawn) [Compound D1, 3-(6-((2-(4-(7-((4-(((R)-1-(3-Bromophenyl)ethyl)amino)-6-methoxy-2-methyl-quinazolin-7-yl)oxy)heptyl)piperazin-1-yl)-2-oxoethyl)amino)-1-methyl-1H-indazol-3-yl)-piperidine-2,6-dione], the IC50 came to 1.1 µM in the assay with Lovo (G13D) cells, 1.4 µM in the assay with SW480 (G12V) cells, 1.8 µM in the assay on SW48 (wt) cells and 2.9 µM in the assay with H358 (G12C) cells.

Turning to `COc1cc2c(N[C@H](C)c3cccc(Br)c3)nc(C)nc2cc1OCCCCCCCCCN1CCN(C(=O)COc2cccc(N3CCC(=O)NC3=O)c2)CC1` [Compound C5, (R)-1-(3-(2-(4-(9-((4-((1-(3-Bromophenyl)ethyl)amino)-6-methoxy-2-methyl-quinazolin-7-yl)oxy)nonyl)piperazin-1-yl)-2-oxoethoxy)phenyl)dihydropyrimidine-2,4(1H,3H)-dione], the IC50 in the assay with Lovo (G13D) cells was determined as 0.63 µM; in the assay on SW480 (G12V) cells it was 0.57 µM; with SW48 (wt) cells it was 2 µM; with H358 (G12C) cells it was 1.9 µM; in the assay with AsPC-1 (G12D) cells, 1.5 µM.

For the compound `COc1cc2c(N[C@H](C)c3cccc(Br)c3)nc(C)nc2cc1OCCCCCCCCCN1CCN(C(=O)CNc2ccc3c(C4CCC(=O)NC4=O)nn(C)c3c2)CC1` (stereo partly drawn) [Compound D2, 3-(6-((2-(4-(9-((4-(((R)-1-(3-bromophenyl)ethyl)amino)-6-methoxy-2-methylquinazolin-7-yl)oxy)nonyl)piperazin-1-yl)-2-oxoethyl)amino)-1-methyl-1H-indazol-3-yl)piperidine-2,6-dione], the concentration for half-maximal inhibition (IC50) in the assay on Lovo (G13D) cells stood at 0.55 µM; in the assay with SW480 (G12V) cells, 0.97 µM; with SW48 (wt) cells, 1.2 µM; with H358 (G12C) cells, 1.7 µM.

`COc1cc2c(N[C@H](C)c3cccc(Br)c3)nc(C)nc2cc1OCCCCCCCCCCCN1CCN(C(=O)CNc2cccc3c(C4CCC(=O)NC4=O)nn(C)c23)CC1` (stereo partly drawn) [Compound D6, 3-(7-((2-(4-(11-((4-(((R)-1-(3-Bromophenyl)ethyl)amino)-6-methoxy-2-methylquinazolin-7-yl)oxy)undecyl)piperazin-1-yl)-2-oxoethyl)amino)-1-methyl-1H-indazol-3-yl)piperidine-2,6-dione]: the IC50 in the assay on Lovo (G13D) cells is 0.76 µM; in the assay on SW480 (G12V) cells, 1.7 µM; with SW48 (wt) cells, 2.4 µM; in the assay with H358 (G12C) cells it was 6.4 µM.

Turning to `COc1cc2c(N[C@H](C)c3cccc(Br)c3)nc(C)nc2cc1OCCCCCCCCCCCN1CCN(C(=O)CNc2cccc(C3CCC(=O)NC3=O)c2)CC1` (stereo partly drawn) [Compound B3, 3-(3-((2-(4-(11-((4-(((R)-1-(3-Bromophenyl)ethyl)amino)-6-methoxy-2-methyl-quinazolin-7-yl)oxy)undecyl)piperazin-1-yl)-2-oxoethyl)amino)phenyl)piperidine-2,6-dione], the IC50 with Lovo (G13D) cells amounted to 0.55 µM; in the assay on SW480 (G12V) cells it was 0.48 µM; in the assay on SW48 (wt) cells, 1.7 µM; with H358 (G12C) cells, 2.9 µM.

As for `COc1cc2c(N[C@H](C)c3cccc(Br)c3)nc(C)nc2cc1OCCCCCCCCCCCN1CCN(C(=O)CNc2ccc3c(C4CCC(=O)NC4=O)nn(C)c3c2)CC1` (stereo partly drawn) [Compound D3, 3-(6-((2-(4-(11-((4-(((R)-1-(3-Bromophenyl)ethyl)amino)-6-methoxy-2-methyl-quinazolin-7-yl)oxy)undecyl)piperazin-1-yl)-2-oxoethyl)amino)-1-methyl-1H-indazol-3-yl)-piperidine-2,6-dione], the IC50 in the assay with Lovo (G13D) cells stood at 0.64 µM; with SW480 (G12V) cells, 0.61 µM; with SW48 (wt) cells, 0.48 µM; in the assay on H358 (G12C) cells, 1.4 µM.

In the case of `COc1cc2c(N[C@H](C)c3cccc(Br)c3)nc(C)nc2cc1OCCCCCCCCCN1CCN(C(=O)CNc2ccc(C3CCC(=O)NC3=O)cc2)CC1` (stereo partly drawn) [Compound B5, 3-(4-((2-(4-(9-((4-(((R)-1-(3-Bromophenyl)ethyl)amino)-6-methoxy-2-methyl-quinazolin-7-yl)oxy)nonyl)piperazin-1-yl)-2-oxoethyl)amino)phenyl)piperidine-2,6-dione], the IC50 in the assay with Lovo (G13D) cells stood at 0.19 µM; in the assay with SW480 (G12V) cells, 0.45 µM; in the assay with SW48 (wt) cells, 1.2 µM; in the assay on H358 (G12C) cells, 2 µM.

For `COc1cc2c(N[C@H](C)c3cccc(Br)c3)nc(C)nc2cc1OCCCCCCCN1CCN(C(=O)CNc2cccc(C3CCC(=O)NC3=O)c2)CC1` (stereo partly drawn) [Compound B1, 3-(3-((2-(4-(7-((4-(((R)-1-(3-bromophenyl)ethyl)amino)-6-methoxy-2-methylquinazolin-7-yl)oxy)heptyl)piperazin-1-yl)-2-oxoethyl)amino)phenyl)piperidine-2,6-dione], the IC50 with Lovo (G13D) cells is 0.34 µM; with SW480 (G12V) cells it was 0.66 µM; with SW48 (wt) cells, 1.1 µM; in the assay on H358 (G12C) cells, 1.1 µM.

Turning to `COc1cc2c(N[C@H](C)c3cccc(Br)c3)nc(C)nc2cc1OCCCCCCCN1CCN(C(=O)CNc2ccc(C3CCC(=O)NC3=O)cc2)CC1` (stereo partly drawn) [Compound B4, 3-(4-((2-(4-(7-((4-(((R)-1-(3-bromophenyl)ethyl)amino)-6-methoxy-2-methylquinazolin-7-yl)oxy)heptyl)piperazin-1-yl)-2-oxoethyl)amino)phenyl)piperidine-2,6-dione], the IC50 with Lovo (G13D) cells amounted to 0.23 µM; in the assay on SW480 (G12V) cells, 0.49 µM; in the assay with SW48 (wt) cells it was 1.1 µM; with H358 (G12C) cells, 0.93 µM.
